Source: patent publication US7683061B2, “Triazine dimers for the treatment of autoimmune diseases” (ProMetic BioSciences Inc., priority 2003, dated 2010)
Like-named read-outs stand apart in the source and are kept apart here.

Legend:
[1] = biological target: T1, TNFα / p55 TNFα receptor (CD120a) (Homo sapiens, UniProt P01375); assay: Binding ELISA: sTNF-R1 binding to plastic coated TNF-α; conditions: for inhibition at 100 µM: 10^−4 M; for inhibition at 10 µM: 10^−5 M
Procedure: (§1) Compounds were tested for their ability to bind to TNFα or inhibit the interaction of TNFα with its respective receptors; p55 and p75 TNFα receptor. Three binding ELISA assays were undertaken as described by Mancini et al. Biochemical Pharmacology 58, 851-859 (1999). TNFα or receptor (1 μg/mL) was coated on a 96-well plate Maxisorp, overnight at 4° C. After incubation, unbound TNFα or p55 TNFα receptor or p75 TNFα receptor was removed and the plate washed three times with PBS. The plate was then incubated with 100 μL/well of a 2% BSA solution for 1 h at 37° C. to block non specific protein binding. After incubation, the plate was washed three times with PBS. Biotinylated recombinant human TNFα p55 or p75 receptor or biotinylated recombinant human TNFα was added to the wells in the presence or absence of compounds. The plate was incubated for 1 h at 37° C. After incubation, the plate was washed three times with PBS to remove unbound labeled p55 or p75 receptor or recombinant human TNFα. 100 μL of avidin-HRP (diluted 1/2000 in PBS-0.1% BSA) was added to each well and incubated 1 h at 37° C. Bound p55 or p75 receptor or recombinant human TNFα was detected by the addition of 200 μL of 3,3′,5,5′-tetramethylbenzidine (TMB) per well for 15 min. The plate was then read at 655 nm on a EL 800 universal Microplate reader (Bio-Tek, Mississauga, Canada). Data was analyzed in Microsoft Excel and recorded as the percentage of inhibition of p55 or p75 binding to TNFα or TNFα binding to RI (p55) or RII (p75).

[2] = system: TNFα production, J774A-1 cells; assay: LPS-induced TNFα production in J774A-1 cells (ELISA); type: cell-based; conditions: Mus musculus, J774.A1, 24 h, read-out: IC50 (μM), inhibition of TNFα released by LPS induction
Procedure: Effect of compounds on TNFα production was measured by ELISA using J774-1 cells stimulated by LPS. J774-1 cells were cultured in the presence or absence of LPS and compound. Cells were cultured at 37° C. for 24 h and thereafter the supernatants were collected for the determination of the concentration of TNFα by ELISA as recommended by the manufacturer (BD Biosciences). Data was analyzed in Microsoft Excel and the concentration of compound which inhibits 50% of TNFα production (IC50) was calculated using Prism software.

[3] = system: TNFα-induced apoptosis, WEHI-13VAR cells; assay: TNFα induced apoptosis in WEHI-13VAR cells (MTT); type: cell-based, murine; conditions: Mus musculus; for inhibition at 10 µM: 1 × 10^−5M; for inhibition at 20 µM: 2 × 10^−5M; for inhibition at 40 µM: 4 × 10^−5M; for inhibition at 5 µM: 5 × 10^−6M
Procedure: Effect of compounds on TNFα-induced apoptosis was measured by a standard biological assay using WEHI-13VAR cells. These cells undergo apoptosis when they are incubated in the presence of TNFα and actinomycin D. 2×10^4 WEHI-13VAR cells were incubated in RPMI supplemented with 1% sodium pyruvate and 10% FBS, overnight at 37° C. for cell adherence. The cells were then cultured in the presence of 1 μg/mL of actinomycin D (to inhibit protein synthesis) and 0.04 nM TNFα with or without compounds at 37° C. After 16-24 h, 50 μL of a solution of 2 mg/mL of MTT was added to each well and the plate was then incubated for 4 h at 37° C. Only viable cells metabolize MTT to form formazan salt, which is detectable by the measurement of absorbance at 570 nm. After the incubation, the plate was inverted to remove medium and dead cells. 150 μL DMSO was added to each well to stop the reaction and solubilize the formazan salt. Optical density was read on a EL 800, universal Microplate reader (Bio-Tek). A decrease in the optical density is direct evidence of cell apoptosis induced by TNFα. Compounds were also compared to the activity of an anti-TNFα neutralizing antibody.

[4] = biological target: T2, Fc portion of human IgG (binding of protein A to human IgG); assay: Competitive protein A binding ELISA
T2 construct: fused on or other part: Horseradish peroxidase chemically conjugated to the IgG (HRP-IgG)
Procedure: As described above, this assay evaluates the ability of the exemplified compounds to mimic protein A. Such compounds can bind to the Fc portion of human IgG as ascertained by the inhibition of binding of protein A to human IgG. The competitive protein A binding ELISA assay was performed on a 96-well plate Maxisorp surface to enhance the binding of protein A to the bottom of the plate. The wells were coated with 100 μL of protein A (0.8 μg) and incubated overnight at 4° C. After incubation, unbound protein A was removed by three washes with phosphate buffer saline (PBS). The plate was then incubated with 100 μL/well of a 2% solution of bovine serum albumin (BSA) for 1 h at 37° C. to block non specific protein binding. After incubation, the plate was washed to times with PBS. 50 μL of compound or protein A, diluted in PBS or PBS-20% DMSO at appropriate concentration, were added to the wells followed by addition of 50 μL of peroxidase-conjugated human IgG (HRP-IgG). After 1 h incubation at 37° C., the plate was washed free times with PBS to remove unbound HRP-IgG. Bound HRP-IgG was detected by incubation with 100 μL of 2,2′-Azino-di[3-ethylbenzothiazoline sulfonate]diammonium salt crystals (ABTS) solution for 20 min in the dark at room temperature. The plate was then read at 405 nm on a EL 800, universal Microplate reader (Bio-Tek). Data was analyzed in Microsoft Excel and the concentration of compound which inhibits 50% binding of protein A (IC50) was calculated using Prism software.
Table 1 represents the IC50 of compounds tested in the competitive protein A binding ELISA assay, which consists of a side-by-side analysis in PBS and PBS-20% DMSO. DMSO was used to increase the solubility of some of the compounds.

[5] = biological target: T3, TNFα / p75 TNFα receptor (CD120b) (Homo sapiens, UniProt P01375); assay: Binding ELISA: sTNF-R2 binding to plastic coated TNF-α; conditions: for inhibition at 100 µM: 10^−4 M; for inhibition at 10 µM: 10^−5 M
T3 sequence (P01375 77-233 limits assumed): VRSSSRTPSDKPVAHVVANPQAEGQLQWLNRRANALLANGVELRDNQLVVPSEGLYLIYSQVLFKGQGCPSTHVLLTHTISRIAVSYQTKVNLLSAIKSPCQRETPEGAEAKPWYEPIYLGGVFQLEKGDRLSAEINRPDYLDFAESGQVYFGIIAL
Procedure: as §1

[6] = biological target: T1, TNFα / p55 TNFα receptor (CD120a); assay: Binding ELISA: TNF-α binding to plastic coated TNF-R1; conditions: for inhibition at 100 µM: 10^−4 M; for inhibition at 10 µM: 10^−5 M
Procedure: as §1

[7] = biological target: T3, TNFα / p75 TNFα receptor (CD120b); assay: Binding ELISA: TNF-α binding to plastic coated TNF-R2; conditions: for inhibition at 100 µM: 10^−4 M; for inhibition at 10 µM: 10^−5 M
Procedure: as §1

[8] = system: peripheral blood mononuclear leukocytes (PBML); assay: PBML DNA synthesis (thymidine); type: cell-based, human; conditions: for IC50: Homo sapiens, Leukocyte
Source text: (§2) PBML were obtained from the peripheral blood of healthy volunteers. Blood was submitted to gradient centrifugation with Lympholyte-poly (Cedarlane, Hornby, Canada). The layer, which contains the mononuclear leukocytes, was collected and the cells washed three times in PBS. Cells were then suspended in RPMI (Gibco, Burlington, Canada) supplemented with […] (cyclone, Logan USA). Viability was greater than 99% as determined by trypan blue exclusion.
(§3) PBML were resuspended at 2×10^6 cells mL. 100 μL of PBML (2×10^5 cells) were incubated in a 96-well microtiter plate for 48 h in the presence or absence of compound or protein A. Cells were quiescent or stimulated with concanavalin A (ConA; T-cells) or pokeweed mitogen (PWM; B-cells). After incubation, cells were treated with MTT (cytotoxicity) or pulsed with 1 μCi of [^3]-thymidine (DNA synthesis), [^3H]-uridine (RNA synthesis) or [^3]-leucine (protein synthesis) for 6 h. Plates were harvested on a Tomteck and counted on a Microbeta β-counter.

PBML cytotoxicity (MTT) = type: cell-based; conditions: human
Source text: as §2, §3

[9] = system: peripheral blood mononuclear leukocytes (PBML); assay: PBML RNA synthesis (uridine); type: cell-based, human; conditions: for IC50: Homo sapiens, Leukocyte
Source text: as §2, §3

[10] = system: peripheral blood mononuclear leukocytes (PBML); assay: PBML protein synthesis (leucine); type: cell-based, human; conditions: Homo sapiens, Leukocyte
Source text: as §2, §3

RAW 264.7 cells = assay: Phagocytosis of FITC-immune complexes by RAW 264.7 cells; type: cell-based; conditions: Mus musculus, RAW264.7; 20 μM; read-out: inhibition of phagocytosis of IC
Procedure: This assay was performed to determine the ability of protein A mimic compounds to stimulate or inhibit uptake of FITC-Immune Complex (IC). FITC-IC was prepared by mixing human serum albumin (HSA)-fluorescein isothiocyanate (FITC) with mouse IgG anti-HSA at a 1:4 ratio (four molecules of antibody for one molecule of antigen) on a rotary shaker for 1 h at room temperature. Soluble IC was then incubated with or without compounds or protein A for 10 min. This mixture was added to RAW 264.7 cells and incubated for 2 h at 37° C. for IC phagocytosis. After incubation, cells were washed twice in cold PBS (5 min, 1200 rpm) and fixed with 500 μL PBS containing 2% formaldehyde. FITC signal taken up by RAW 264.7, which is indicative of IC phagocytosis, was determined by flow cytometry analysis in a Becton Coulter counter with an argon laser and signal was measured through a 530/30 nm filter.

MRL/lpr mice = assay: SLE-like syndrome in MRL/lpr mice; type: in vivo; conditions: control group 10%
Source text: FIG. 5 is an example of the effect of compounds on survival of MRL/lpr mice. These mice also spontaneously develop SLE-like syndrome. MRL/lpr have a homozygous fas mutation, which accelerates autoimmunity. […] Furthermore, compounds 1 and 20 increase the survival (40%) compared to the control group (10%).

[11] = Table 1, PBS-20% DMSO, read-out: IC50 (μM): Assay in PBS-20% DMSO
[12] = Table 1, PBS, read-out: IC50 (μM): Assay in PBS
[13] = resting and stimulated (ConA and PWM) PBML

T1 sequence (P01375 77-233 limits assumed): as above

SMILES | inhibition at 100 µM [1] | inhibition at 10 µM [1] | IC50 [2] | inhibition at 10 µM [3] | inhibition at 20 µM [3] | inhibition at 40 µM [3] | inhibition at 5 µM [3] | IC50 [4, 11] | IC50 [4, 12] | inhibition at 100 µM [5] | inhibition at 10 µM [5] | inhibition at 100 µM [6] | inhibition at 10 µM [6] | inhibition at 100 µM [7] | inhibition at 10 µM [7] | further results
NCCc1ccc(Nc2nc(NCCNc3nc(Nc4ccccc4)nc(Nc4ccc(CCN)cc4)n3)nc(Nc3ccccc3)n2)cc1 [Compound 4] | 2.19% | 4.5% | 94.4 µM | 11.2% | 25.3% | 44% | 2.4% | 40 µM | 44 µM | 5.26% | 2.06% | -69.4% | -47.4% | -105% | -86.7% | 
Cc1ccccc1Nc1nc(NCCNc2nc(NCCc3ccc(O)cc3)nc(Nc3ccccc3C)n2)nc(NCCc2ccc(O)cc2)n1 [Compound 5] | 1.54% | 2.95% | 44 µM | 35.1% | 38.7% | 35.4% | 28.9% | 36 µM |  | 2.68% | 4.31% | 15.4% | 4.6% | 38.5% | 21.2% | 
Nc1ccc(CCNc2nc(NCCNc3nc(NCCc4ccc(N)cc4)nc(Nc4cccc(N)c4)n3)nc(Nc3cccc(N)c3)n2)cc1 [Compound 7] |  |  |  |  |  |  |  | 0.02 µM | 0.2 µM |  |  | 32.6% | 10.4% | 36.9% | 43.3% | IC50 ([4]; Table 2, PBS-20% DMSO, n = 5 or 6, read-out: IC50 (n = 5 or 6) PBS-20% DMSO): 0.0217 µM; IC50 ([4]; Table 2, PBS, n = 5 or 6, read-out: IC50 (n = 5 or 6) PBS): 0.187 µM; IC50 ([8]; ConA stimulated PBML): 3.52 µM; IC50 ([8]; PWM stimulated PBML): 1.28 µM; IC50 ([8]; Resting PBML): 3.6 µM; effect on DNA synthesis (in words) [8, 13]: suppress; IC50 at 48 h (PBML cytotoxicity (MTT); ConA stimulated PBML): > 10 µM; IC50 at 48 h (PBML cytotoxicity (MTT); PWM stimulated PBML): > 10 µM; IC50 at 48 h (PBML cytotoxicity (MTT); Resting PBML): > 10 µM; IC50 ([9]; ConA stimulated PBML): 1.5 µM; IC50 ([9]; PWM stimulated PBML): 1.78 µM; IC50 ([9]; Resting PBML): 1.12 µM; effect on RNA synthesis (in words) [9, 13]: suppress; IC50 ([10]; ConA stimulated PBML): > 10 µM; IC50 ([10]; PWM stimulated PBML): > 10 µM; IC50 ([10]; Resting PBML): > 10 µM
N=C(N)NCCNc1nc(NCCc2ccc(Oc3nc(NCCc4ccc(O)cc4)nc(Nc4ccccc4)n3)cc2)nc(Nc2ccccc2)n1 [Compound 14] |  |  | 11.8 µM |  |  |  |  | 63 µM | 33 µM |  |  |  |  |  |  | inhibition at 20 µM (RAW 264.7 cells): ~50%
OCCNc1nc(NCCc2ccc(Nc3nc(NCCc4ccc(O)cc4)nc(Nc4ccccc4)n3)cc2)nc(Nc2ccccc2)n1 [Compound 20] |  |  | 23.3 µM |  |  |  |  | 26 µM |  |  |  |  |  |  |  | survival of MRL/lpr mice (MRL/lpr mice): 40%
Oc1ccc(CCNc2nc(NCCCNc3nc(NCCc4ccc(O)cc4)nc(Nc4ccccc4)n3)nc(Nc3ccccc3)n2)cc1 [Compound 25] | 5.65% | 6.74% | 15.9 µM | 22.8% | -0.7% | -17.8% | 27.5% |  |  | 4.22% | 6.76% | 22.9% | 3.95% | 49.2% | 4.8% | 
